Results: patent US6355799B1, “Substituted benzene compounds, process for their preparation, and herbicidal and defoliant compositions containing them” (ISK Americas Incorporated, priority 1997, dated 2002)

Tests used:
Type in all cases: in vivo
[1] = test system: green foxtail (Setaria viridis, SETVI); experiment: Pre-emerge test, greenhouse herbicide activity screening; details: pre-emerge, 14 days after application, rating scale 0-100
Procedure, shortened: (§1)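 Compounds in acetone were track-sprayed at 15–1000 g ai/ha: pre-emergence onto soil sown the previous day, then top-watered to incorporate and later bottom-watered; post-emergence onto 2–3 leaf plants with 0.25% v/v surfactant, bottom-watered only. Ratings on a 0–100 phytotoxicity scale were taken at day 14.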

[2] = test system: johnsongrass (Sorghum halepense, SORHA); experiment: as above; details: pre-emerge, 14 days after application, rating scale 0-100
Procedure, shortened: as §1

[3] = test system: barnyardgrass (Echinochloa crus-galli, ECHCG); experiment: as above; details: pre-emerge, 14 days after application, rating scale 0-100
Procedure, shortened: as §1

[4] = test system: lambsquarters (Chenopodium album, CHEAL); experiment: as above; details: pre-emerge, 14 days after application, rating scale 0-100
Procedure, shortened: as §1

[5] = test system: velvetleaf (Abutilon theophrasti, ABUTH); experiment: as above; details: pre-emerge, 14 days after application, rating scale 0-100
Procedure, shortened: as §1

[6] = test system: ivyleaf morningglory (Ipomoea hederacea, IPOHE); experiment: as above; details: pre-emerge, 14 days after application, rating scale 0-100
Procedure, shortened: as §1

[7] = test system: common ragweed (Ambrosia artemisizfolia L., AMBEL); experiment: as above; details: pre-emerge, 14 days after application, rating scale 0-100
Procedure, shortened: as §1

[8] = test system: sicklepod (Cassia obtusifolia, CASOB); experiment: as above; details: pre-emerge, 14 days after application, rating scale 0-100
Procedure, shortened: as §1

[9] = test system: large crabgrass (Digitaria sanguinalis, DIGSA); experiment: as above; details: pre-emerge, 14 days after application, rating scale 0-100
Procedure, shortened: as §1

[10] = test system: field corn (Zea mays L., var. Dekalb 535, CORN); experiment: Post-emerge test, crop safety; details: post-emerge, 14 days after application, rating scale 0-100
Procedure, shortened: (§2)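 Rating: 0–100 visual injury, 14 DAA. Application: acetone, 187 l/ha, 15–1000 g ai/ha, flat-fan track sprayer with nozzle 40–45 cm above soil or canopy. Post-emerge runs used 0.25% v/v surfactant on 2–3 leaf plants.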

[11] = test system: upland rice (Oryza sp., var. Tebonnet, RICE); experiment: Post-emerge test, crop safety; details: post-emerge, 14 days after application, rating scale 0-100
Procedure, shortened: as §2

[12] = test system: green foxtail (Setaria viridis, SETVI); experiment: Post-emerge test, greenhouse herbicide activity screening; details: post-emerge, 14 days after application, rating scale 0-100
Procedure, shortened: (§3)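 Plants grown in 10 cm pots of sandy loam mix received acetone-dissolved compounds through a moving flat-fan nozzle. Doses ranged from 15 to 1000 g ai/ha. Pre-emerge pots were seeded one day earlier, post-emerge pots 8–21 days earlier. Fourteen days on, each pot was graded 0–100 for damage.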

[13] = test system: johnsongrass (Sorghum halepense, SORHA); experiment: as above; details: post-emerge, 14 days after application, rating scale 0-100
Procedure, shortened: as §3

[14] = test system: barnyardgrass (Echinochloa crus-galli, ECHCG); experiment: as above; details: post-emerge, 14 days after application, rating scale 0-100
Procedure, shortened: as §3

[15] = test system: lambsquarters (Chenopodium album, CHEAL); experiment: as above; details: post-emerge, 14 days after application, rating scale 0-100
Procedure, shortened: as §3

[16] = test system: velvetleaf (Abutilon theophrasti, ABUTH); experiment: as above; details: post-emerge, 14 days after application, rating scale 0-100
Procedure, shortened: as §3

[17] = test system: ivyleaf morningglory (Ipomoea hederacea, IPOHE); experiment: as above; details: post-emerge, 14 days after application, rating scale 0-100
Procedure, shortened: as §3

[18] = test system: sicklepod (Cassia obtusifolia, CASOB); experiment: as above; details: post-emerge, 14 days after application, rating scale 0-100
Procedure, shortened: as §3

[19] = test system: large crabgrass (Digitaria sanguinalis, DIGSA); experiment: as above; details: post-emerge, 14 days after application, rating scale 0-100
Procedure, shortened: as §3

[20] = test system: redroot pigweed (Amaranthus retroflexus, AMARE); experiment: as above; details: post-emerge, 14 days after application
Procedure, shortened: as §3

[21] = test system: field corn (Zea mays L., var. Dekalb 535, CORN); experiment: Pre-emerge test, crop safety; details: pre-emerge, 14 days after application, rating scale 0-100
Procedure, shortened: (§4)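 Fourteen days after spraying, crop and weed injury was graded visually from 0, no effect, to 100, every plant dead. Test substances were dissolved in acetone and applied at 15–1000 g ai/ha with a flat-fan nozzle. Application was either pre-emergence, one day after sowing, or post-emergence at the 2–3 leaf stage.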

[22] = test system: upland rice (Oryza sp., var. Tebonnet, RICE); experiment: Pre-emerge test, crop safety; details: pre-emerge, 14 days after application, rating scale 0-100
Procedure, shortened: as §4

[23] = test system: redroot pigweed (Amaranthus retroflexus, AMARE); experiment: Pre-emerge test, greenhouse herbicide activity screening; details: pre-emerge, 14 days after application, rating scale 0-100
Procedure, shortened: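 Herbicidal damage is scored 0 (none) to 100 (complete plant death) two weeks after a simulated field spray. Rates span 15–1000 g ai/ha, delivered in acetone at 187 l/ha. For post-emergence treatments, plants have 2–3 leaves and the spray carries 0.25% v/v non-ionic surfactant.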

[24] = 63 g ai/ha, rating scale 0-100 (0 no damage, 100 complete death)
[25] = 250 g ai/ha, rating scale 0-100

With COc1c(Cl)cc(F)c(-n2c(=O)cc(C(F)(F)F)n(C)c2=O)c1NNC(=O)c1ccccc1 [15-3] the “phytotoxicity rating SETVI” value ([1]; 63 g ai/ha) was 100, the “phytotoxicity rating SETVI” value ([1]; 250 g ai/ha) was 100 and the “phytotoxicity rating SORHA” value ([2]; 63 g ai/ha) was 100. For the same compound, the “phytotoxicity rating SORHA” value ([2]; 250 g ai/ha) was 100, the “phytotoxicity rating ECHCG” value ([3]; 63 g ai/ha) was 100 and the “phytotoxicity rating ECHCG” value ([3]; 250 g ai/ha) was 100. For the same compound, the “phytotoxicity rating CHEAL” value ([4]; 63 g ai/ha) was 100, the “phytotoxicity rating CHEAL” value ([4]; 250 g ai/ha) was 100 and the “phytotoxicity rating ABUTH” value ([5]; 63 g ai/ha) was 100. The “phytotoxicity rating ABUTH” value ([5]; 250 g ai/ha) was 100, the “phytotoxicity rating IPOHE” value ([6]; 63 g ai/ha) was 100 and the “phytotoxicity rating IPOHE” value ([6]; 250 g ai/ha) was 100. For the same compound, the “phytotoxicity rating AMBEL” value ([7]; 63 g ai/ha) was 100, the “phytotoxicity rating AMBEL” value ([7]; 250 g ai/ha) was 100 and the “phytotoxicity rating CASOB” value ([8]; 63 g ai/ha) was 100. For the same compound, the “phytotoxicity rating CASOB” value ([8]; 250 g ai/ha) was 100, the “phytotoxicity rating DIGSA” value ([9]; 63 g ai/ha) was 100 and the “phytotoxicity rating DIGSA” value ([9]; 250 g ai/ha) was 100. The “Post-emerge Herbicidal Activity CORN (crop damage rating)” value (“Post-emerge Herbicidal Activity CORN” for short) ([10]; 63 g ai/ha) was 25, the “Post-emerge Herbicidal Activity CORN” value ([10]; 250 g ai/ha) was 80 and the “Post-emerge Herbicidal Activity RICE (crop damage rating)” value (“Post-emerge Herbicidal Activity RICE” for short) ([11]; 63 g ai/ha) was 50. For the same compound, the “Post-emerge Herbicidal Activity RICE” value ([11]; 250 g ai/ha) was 90, the “Post-emerge Herbicidal Activity SETVI (phytotoxicity rating)” value (“Post-emerge Herbicidal Activity SETVI” for short) ([12]; 63 g ai/ha) was 30 and the “Post-emerge Herbicidal Activity SETVI” value ([12]; 250 g ai/ha) was 80. For the same compound, the “Post-emerge Herbicidal Activity SORHA (phytotoxicity rating)” value (“Post-emerge Herbicidal Activity SORHA” below) ([13]; 63 g ai/ha) was 0, the “Post-emerge Herbicidal Activity SORHA” value ([13]; 250 g ai/ha) was 90 and the “Post-emerge Herbicidal Activity ECHCG (phytotoxicity rating)” value (shortened to “Post-emerge Herbicidal Activity ECHCG”) ([14]; 63 g ai/ha) was 10. The “Post-emerge Herbicidal Activity ECHCG” value ([14]; 250 g ai/ha) was 90, the “Post-emerge Herbicidal Activity CHEAL (phytotoxicity rating)” value (“Post-emerge Herbicidal Activity CHEAL” for short) ([15]; 63 g ai/ha) was 95 and the “Post-emerge Herbicidal Activity CHEAL” value ([15]; 250 g ai/ha) was 100. The “Post-emerge Herbicidal Activity ABUTH (phytotoxicity rating)” value (“Post-emerge Herbicidal Activity ABUTH” below) ([16]; 63 g ai/ha) was 100, the “Post-emerge Herbicidal Activity ABUTH” value ([16]; 250 g ai/ha) was 100 and the “Post-emerge Herbicidal Activity IPOHE (phytotoxicity rating)” value (shortened to “Post-emerge Herbicidal Activity IPOHE”) ([17]; 63 g ai/ha) was 95. For the same compound, the “Post-emerge Herbicidal Activity IPOHE” value ([17]; 250 g ai/ha) was 100, the “Post-emerge Herbicidal Activity CASOB (phytotoxicity rating)” value (“Post-emerge Herbicidal Activity CASOB” for short) ([18]; 63 g ai/ha) was 70 and the “Post-emerge Herbicidal Activity CASOB” value ([18]; 250 g ai/ha) was 100. The “Post-emerge Herbicidal Activity DIGSA (phytotoxicity rating)” value (“Post-emerge Herbicidal Activity DIGSA” below) ([19]; 63 g ai/ha) was 20, the “Post-emerge Herbicidal Activity DIGSA” value ([19]; 250 g ai/ha) was 80 and the “Post-emerge Herbicidal Activity AMARE (phytotoxicity rating)” value (shortened to “Post-emerge Herbicidal Activity AMARE”) [20, 24] was 95. For the same compound, the “Post-emerge Herbicidal Activity AMARE” value [20, 25] was 100, the “phytotoxicity rating CORN” value ([21]; 63 g ai/ha) was 90 and the “phytotoxicity rating CORN” value ([21]; 250 g ai/ha) was 100. The “phytotoxicity rating RICE” value ([22]; 63 g ai/ha) was 95, the “phytotoxicity rating RICE” value ([22]; 250 g ai/ha) was 100 and the “phytotoxicity rating AMARE” value ([23]; 63 g ai/ha) was 100. For the same compound, the “phytotoxicity rating AMARE” value ([23]; 250 g ai/ha) was 100.

For C=CC=NNc1c(OC)c(Cl)cc(F)c1-n1c(=O)cc(C(F)(F)F)n(C)c1=O [15-10], the “phytotoxicity rating SETVI” value ([1]; 63 g ai/ha) was 100, the “phytotoxicity rating SETVI” value ([1]; 250 g ai/ha) was 100 and the “phytotoxicity rating SORHA” value ([2]; 63 g ai/ha) was 100. For the same compound, the “phytotoxicity rating SORHA” value ([2]; 250 g ai/ha) was 100, the “phytotoxicity rating ECHCG” value ([3]; 63 g ai/ha) was 99 and the “phytotoxicity rating ECHCG” value ([3]; 250 g ai/ha) was 100. For the same compound, the “phytotoxicity rating CHEAL” value ([4]; 63 g ai/ha) was 100, the “phytotoxicity rating CHEAL” value ([4]; 250 g ai/ha) was 100 and the “phytotoxicity rating ABUTH” value ([5]; 63 g ai/ha) was 100. For the same compound, the “phytotoxicity rating ABUTH” value ([5]; 250 g ai/ha) was 100, the “phytotoxicity rating IPOHE” value ([6]; 63 g ai/ha) was 100 and the “phytotoxicity rating IPOHE” value ([6]; 250 g ai/ha) was 100. For the same compound, the “phytotoxicity rating AMBEL” value ([7]; 63 g ai/ha) was 100, the “phytotoxicity rating AMBEL” value ([7]; 250 g ai/ha) was 100 and the “phytotoxicity rating CASOB” value ([8]; 63 g ai/ha) was 80. For the same compound, the “phytotoxicity rating CASOB” value ([8]; 250 g ai/ha) was 100, the “phytotoxicity rating DIGSA” value ([9]; 63 g ai/ha) was 100 and the “phytotoxicity rating DIGSA” value ([9]; 250 g ai/ha) was 100. The “Post-emerge Herbicidal Activity CORN” value ([10]; 63 g ai/ha) was 45, the “Post-emerge Herbicidal Activity CORN” value ([10]; 250 g ai/ha) was 65 and the “Post-emerge Herbicidal Activity RICE” value ([11]; 63 g ai/ha) was 50. The “Post-emerge Herbicidal Activity RICE” value ([11]; 250 g ai/ha) was 80, the “Post-emerge Herbicidal Activity SETVI” value ([12]; 63 g ai/ha) was 30 and the “Post-emerge Herbicidal Activity SETVI” value ([12]; 250 g ai/ha) was 75. For the same compound, the “Post-emerge Herbicidal Activity SORHA” value ([13]; 63 g ai/ha) was 30, the “Post-emerge Herbicidal Activity SORHA” value ([13]; 250 g ai/ha) was 70 and the “Post-emerge Herbicidal Activity ECHCG” value ([14]; 63 g ai/ha) was 10. For the same compound, the “Post-emerge Herbicidal Activity ECHCG” value ([14]; 250 g ai/ha) was 80, the “Post-emerge Herbicidal Activity CHEAL” value ([15]; 63 g ai/ha) was 100 and the “Post-emerge Herbicidal Activity CHEAL” value ([15]; 250 g ai/ha) was 100. The “Post-emerge Herbicidal Activity ABUTH” value ([16]; 63 g ai/ha) was 100, the “Post-emerge Herbicidal Activity ABUTH” value ([16]; 250 g ai/ha) was 100 and the “Post-emerge Herbicidal Activity IPOHE” value ([17]; 63 g ai/ha) was 100. The “Post-emerge Herbicidal Activity IPOHE” value ([17]; 250 g ai/ha) was 100, the “Post-emerge Herbicidal Activity CASOB” value ([18]; 63 g ai/ha) was 100 and the “Post-emerge Herbicidal Activity CASOB” value ([18]; 250 g ai/ha) was 100. The “Post-emerge Herbicidal Activity DIGSA” value ([19]; 63 g ai/ha) was 60, the “Post-emerge Herbicidal Activity DIGSA” value ([19]; 250 g ai/ha) was 90 and the “Post-emerge Herbicidal Activity AMARE” value [20, 24] was 100. The “Post-emerge Herbicidal Activity AMARE” value [20, 25] was 100, the “phytotoxicity rating CORN” value ([21]; 63 g ai/ha) was 75 and the “phytotoxicity rating CORN” value ([21]; 250 g ai/ha) was 100. For the same compound, the “phytotoxicity rating RICE” value ([22]; 63 g ai/ha) was 80, the “phytotoxicity rating RICE” value ([22]; 250 g ai/ha) was 100 and the “phytotoxicity rating AMARE” value ([23]; 63 g ai/ha) was 100. For the same compound, the “phytotoxicity rating AMARE” value ([23]; 250 g ai/ha) was 100.
